Experimental data as given in US9512178B2, “Neurogenic brain-derived neurotrophic factor peptides” (Research Foundation for Mental Hygiene, Inc., priority 2012, dated 2016).

Tested on: BDNF and TrkB
Experiment: Induction of BDNF and TrkB expression after pre-treatment with CHX or K252a
Assay type: cell-based, mouse
Conditions: 0.1 μM, two days
Experimental: Peptides were dissolved in water in serial dilutions of 10 mM, 1 mM, 100 μM and 10 μM from which the necessary amount was added directly to the culture medium to a final concentration of 0.05 μM, 1 μM, or 10 μM. The BDNF (Peprotech, NJ, USA) was used as a reference in concentrations of 20 ng/ml (0.79 nM) and 100 ng/ml (3.95 nM). Cycloheximide (CHX) (Sigma-Aldrich, St Louis, Mo., USA) was used for blocking protein synthesis. CHX original stock was 100 mg/ml (355.4 mM) in DMSO; from a second stock of 35.54 mM in DMSO, the dilutions were made to the final concentrations of 100 μM. The K252a (CALBIOCHEM/EMD) was used to inhibit the TrkB Receptor. From a stock of 100 μM in DMSO, K252a was diluted to a final working concentration of 200 nM. The E18 primary hippocampal cells were pre-treated with CHX or K252a 1 h prior to the addition of the peptides or BDNF and a time course of these treatments for 15 min, 60 min and 2 days was studied.
To evaluate whether the effect of B-5 and B-3 in induction of the expression of BDNF and TrkB was via the activation of the TrkB receptor and required signal transduction via TrkB and new protein synthesis, mouse embryonic E18 cultured hippocampal cells were pre-treated with the protein synthesis inhibitor, cycloheximide (CHX) or the Trk inhibitor K252a for 1 h, and then added Peptide B-5 at a concentration of 0.1 μM (the dose that gave the maximum induction of BDNF expression, FIGS. 5A and B) or BDNF 20 ng/ml as a positive control (FIG. 7C,D). A time course of these treatments was studied with Peptide B-5 or BDNF for 15 min, 60 min and two days.

Ac-I-K-R-G-CONH2 [Peptide B-5]
increase in the expression of BDNF in the presence of CHX (CHX pre-treatment 1 h): inhibition of the increase | increase in the expression of TrkB in the presence of CHX (CHX pre-treatment 1 h): inhibition of the increase | induction of the expression of BDNF in cells treated with K252a (K252a pre-treatment 1 h): no more significant induction | induction of the expression of TrkB in cells treated with K252a (K252a pre-treatment 1 h): no more significant induction
